Activity calls are given as the source filed them. The rule behind the calls is not given here.
These compounds were tested on Plasmodium falciparum (assay: Antimalarial activity against Plasmodium falciparum 3D7 at 10 uM).
Assay type: functional, organism-based
`COC(=O)[C@@H]1COC(=O)[C@H]2[C@@H]1[C@@H](O)C[C@@]2(C)OC(C)=O` was tested, and the Activity was “inactive”.
For `COC(=O)[C@@H](CO)[C@H]1[C@H](O)C[C@](C)(OC(C)=O)[C@H]1C(=O)O`, the Activity was “inactive”.
For `COC(=O)[C@@H](CO)[C@H]1[C@H](O)C[C@](C)(O)[C@H]1C(=O)O`, the Activity was “inactive”.
For `COC(=O)C1=CO[C@@H](O[C@@H]2O[C@H](CO)[C@@H](O)[C@H](O)[C@H]2O)[C@H]2[C@@H]1[C@H](O)C[C@]2(C)OC(C)=O`, the Activity was “inactive”.

From ChEMBL document CHEMBL4665772, “Secoiridoids and Iridoids from Morinda asteroscepa” (J Nat Prod, 2020)
